Source: paper PMC12152147, “DDB1 engagement defines the selectivity of S656 analogs for cyclin K degradation over CDK inhibition” (EMBO Reports, 2025)
Where “and” joins values, the source holds several entries; their conditions need not be identical. Identical values can stand only once. Like-named read-outs stand apart in the source and are kept apart here.

Assays:
[1] = molecular target: T1, CDK9/CyclinT (Homo sapiens, UniProt P50750); assay: CDK9/CyclinT in vitro kinase activity, single concentration 1 μM; assay type: biochemical; details: single concentration 1 μM
T1 construct: purchased BPS Bioscience 79628
Method: (§1) Kinase activity was assessed using the kinase assay kits from BPS Bioscience for CDK1, CDK9 and CDK12 with Kinase Glo MAX in duplicates. Compounds were tested at a single concentration of 1 μM for CDK1 and CDK9 activity, and in a dilution ranging from 0.64 nM to 50 μM for CDK12 activity. Chemiluminescence was read using the Neo Synergy BioTek plate reader.

[2] = molecular target: T2, CDK1 (Homo sapiens, UniProt P06493); assay: CDK1 in vitro kinase activity, single concentration 1 μM; assay type: biochemical; details: single concentration 1 μM
T2 construct: purchased BPS Bioscience 79597
Method: as §1

[3] = test system: cyclin KeGFP; assay: Cyclin KeGFP reporter system (eGFP/mCherry MFI by flow cytometry);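 on % degradation cyclin K-eGFP: 10 μM compound for 3 h relative to DMSO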; assay type: cell-based, H. sapiens
Method in brief: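 OCI-AML5 clone G7 carrying lentiviral cyclin KeGFP/mCherry reporter. eGFP and mCherry geometric MFI measured by flow cytometry; eGFP/mCherry ratio normalized to DMSO-treated cells.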

[4] = test system: OCI-AML5 cells expressing shRNAs targeting CDK1, 2, 4, 7, 9, cyclin K; assay: Dose response in OCI-AML5 expressing shRNAs targeting CDK1, 2, 4, 7, 9, cyclin K or control; assay type: cell-based, H. sapiens
[5] = test system: OCI-AML5 cells; assay: Dose-response proliferative assay in OCI-AML5 (4 days, CellTiterGlo); assay type: cell-based, H. sapiens; details: Homo sapiens, OCI-AML-5, OCI-AML5 cells; read-out: IC50 in AML5
Method in brief: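 OCI-AML5 cells in αMEM, 10% heat-inactivated FBS plus 10 ng/mL GM-CSF, 300 cells/well, exposed to 8-point 1:4 serial dilutions (10 μM down to 0.5 nM). Viability read after 4 days in culture at 37 °C, 5% CO2.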

[6] = test system: OCI-AML5 cells expressing shRNA targeting CUL4A or CUL4B; assay: Dose response in OCI-AML5 expressing shRNAs targeting CUL4A, CUL4B or control; assay type: cell-based, H. sapiens
[7] = test system: primary AML specimens; assay: Dose-response assays in primary AML specimens (6 days, CellTiterGlo); assay type: cell-based, human; details: Homo sapiens, 144 h, 6 days, read-out: IC50
Method: Freshly thawed primary AML specimens were used for chemical screens. Cryopreserved cells were thawed at 37 °C in IMDM containing 20% FBS and DNase I (100 μg/mL). Cells were resuspended in IMDM supplemented with 15% BIT (BSA, insulin, transferrin; StemCell Technologies), 100 ng/mL SCF, 50 ng/mL FLT3L, 20 ng/mL IL3, 20 ng/mL G-CSF, 10^−4 mol/L b-mercaptoethanol, gentamicin (50 μg/mL), ciprofloxacin (10 μg/mL), SR1 (500 nmol/L) and UM729 (500 nmol/L). Cells were plated in 384-well white plates, 5000 cells per well in 50 μL. Compounds were dissolved in DMSO, diluted in media immediately before use and added to seeded cells at the unique concentration of 1 μM. Control wells received DMSO (0.1%) only. Cell viability was evaluated after 6 days in culture using the CellTiterGlo assay according to the manufacturer’s instruction. Percentage of inhibition for dose response curves was calculated as 100 – (100 × (mean luminescence [compound]/mean luminescence [DMSO])). Dose response curves were generated using nonlinear regression in GraphPad Prism version.
Dose-response assays in primary AML specimens were performed as in chemical screen (see above) with the exception that compounds were tested in serial dilution (8 dilutions, 1:4, 10 μM down to 0.5 nM). Dose-response assays in OCI-AML5 cell line were conducted similarly with the following modifications: 300 cells per well were seeded in 50 μL of cell line media and cell viability was evaluated after 4 days in culture.

T1 sequence (P50750 whole entry): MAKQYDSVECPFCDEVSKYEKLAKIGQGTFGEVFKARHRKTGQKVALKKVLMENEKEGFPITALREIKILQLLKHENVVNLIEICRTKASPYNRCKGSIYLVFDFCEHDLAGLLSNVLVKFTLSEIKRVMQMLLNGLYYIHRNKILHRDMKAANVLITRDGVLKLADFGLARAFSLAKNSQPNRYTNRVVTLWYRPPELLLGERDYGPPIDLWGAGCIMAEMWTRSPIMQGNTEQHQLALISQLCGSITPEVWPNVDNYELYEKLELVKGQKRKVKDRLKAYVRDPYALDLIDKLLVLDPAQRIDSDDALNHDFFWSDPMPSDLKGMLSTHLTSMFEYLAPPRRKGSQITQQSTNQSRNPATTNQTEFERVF
T1 sequence (O60563 whole entry partner): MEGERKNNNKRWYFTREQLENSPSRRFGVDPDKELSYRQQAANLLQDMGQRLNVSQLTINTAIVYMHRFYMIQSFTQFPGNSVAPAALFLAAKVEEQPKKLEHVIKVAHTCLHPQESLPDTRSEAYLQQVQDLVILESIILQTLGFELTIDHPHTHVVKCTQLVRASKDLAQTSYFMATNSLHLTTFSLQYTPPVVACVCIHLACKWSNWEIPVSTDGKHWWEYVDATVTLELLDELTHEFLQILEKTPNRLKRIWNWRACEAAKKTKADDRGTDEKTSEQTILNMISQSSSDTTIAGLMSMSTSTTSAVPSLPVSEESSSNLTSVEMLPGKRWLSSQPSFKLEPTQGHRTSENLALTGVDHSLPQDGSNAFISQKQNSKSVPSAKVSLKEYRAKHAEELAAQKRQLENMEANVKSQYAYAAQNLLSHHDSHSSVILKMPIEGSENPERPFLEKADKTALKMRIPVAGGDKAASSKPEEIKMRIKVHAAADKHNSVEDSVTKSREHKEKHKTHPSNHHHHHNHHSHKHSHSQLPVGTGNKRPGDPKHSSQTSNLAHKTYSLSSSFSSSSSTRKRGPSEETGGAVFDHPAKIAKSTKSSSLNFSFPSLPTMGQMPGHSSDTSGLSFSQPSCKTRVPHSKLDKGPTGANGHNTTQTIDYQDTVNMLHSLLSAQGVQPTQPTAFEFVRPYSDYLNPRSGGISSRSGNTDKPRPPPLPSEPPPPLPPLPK
T2 sequence (P06493 whole entry): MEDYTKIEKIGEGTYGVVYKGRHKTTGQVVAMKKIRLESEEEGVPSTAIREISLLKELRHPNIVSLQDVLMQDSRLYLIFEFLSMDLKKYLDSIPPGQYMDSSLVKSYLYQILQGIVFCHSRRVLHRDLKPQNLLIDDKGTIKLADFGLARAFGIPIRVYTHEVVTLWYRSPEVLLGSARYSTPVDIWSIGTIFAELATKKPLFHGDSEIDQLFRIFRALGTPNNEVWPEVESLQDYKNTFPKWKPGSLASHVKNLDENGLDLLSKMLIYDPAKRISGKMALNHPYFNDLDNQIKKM
T2 sequence (P14635 whole entry partner): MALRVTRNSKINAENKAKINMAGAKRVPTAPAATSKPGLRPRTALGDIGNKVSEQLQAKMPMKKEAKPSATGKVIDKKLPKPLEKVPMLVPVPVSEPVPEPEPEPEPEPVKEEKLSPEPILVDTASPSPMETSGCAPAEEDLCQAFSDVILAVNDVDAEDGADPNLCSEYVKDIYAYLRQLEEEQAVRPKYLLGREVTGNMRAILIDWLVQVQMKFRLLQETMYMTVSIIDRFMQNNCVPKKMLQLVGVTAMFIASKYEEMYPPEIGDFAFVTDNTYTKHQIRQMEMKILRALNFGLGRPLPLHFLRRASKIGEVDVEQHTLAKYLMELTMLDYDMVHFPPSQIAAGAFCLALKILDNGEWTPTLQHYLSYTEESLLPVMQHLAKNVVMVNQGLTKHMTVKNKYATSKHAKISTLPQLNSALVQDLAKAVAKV

CC(C)(C)c1cnc(CSc2cnc(NC(=O)C3CCNCC3)s2)o1 [SNS-032, N-[5-[[[5-(1,1-dimethylethyl)-2-oxazolyl]methyl]thio]-2-thiazolyl]-4-piperidinecarboxamide]
inhibition at 1 µM [1]: 63%
inhibition at 1 µM [2]: 77%
MFI of cyclin KeGFP over mCherry ([3]; OCI-AML5 G7 clone, 3 h, 10 μM, normalized to DMSO (=100)): 111.9 and 100.6 and 100.2 and 98.8 and 97.9
% degradation cyclin K-eGFP ([3]; cyclin K-eGFP reporter): 0%
IC50 ([4]; Homo sapiens, OCI-AML-5, 96 h, OCI-AML5, 4 days, read-out: IC50, sh CDK1): 23.3 nM
IC50 ([4]; Homo sapiens, OCI-AML-5, 96 h, OCI-AML5, 4 days, read-out: IC50, sh ctrl): 37.4 nM
IC50 ([4]; Homo sapiens, OCI-AML-5, 96 h, read-out: IC50, sh CDK7): 24.5 nM
IC50 ([4]; OCI-AML5, 4 days, read-out: IC50, sh CDK1): 46.6 nM and 42 nM
IC50 ([4]; OCI-AML5, 4 days, read-out: IC50, sh ctrl): 47.4 nM and 50 nM
Class ([4]; class from shRNA IC50 profile and cyclin K-eGFP degradation): 2
IC50 ([4]; read-out: IC50, sh CDK7): 41 nM
IC50 [5]: 47 nM
potency upon CUL4A or CUL4B downregulation (for SNS-032, THZ531 also DDB1 depletion) ([6]; OCI-AML5, 4 days): remained unaffected
Ratio shCUL4A/shCTRL ([6]; ratio of IC50 in shCUL4A vs shCTRL OCI-AML5 cells): 1.01
IC50 ([7]; primary AML specimen 03H109): 97.3 nM
IC50 ([7]; primary AML specimen 04H055): 85.7 nM
IC50 ([7]; primary AML specimen 04H096): 118 nM
IC50 ([7]; primary AML specimen 04H138): 101 nM
IC50 ([7]; primary AML specimen 05H113): 153 nM
IC50 ([7]; primary AML specimen 05H149): 547 nM
IC50 ([7]; primary AML specimen 05H193): 164 nM
IC50 ([7]; primary AML specimen 06H088): 217 nM
IC50 ([7]; primary AML specimen 06H117): 134 nM
IC50 ([7]; primary AML specimen 06H151): 135 nM
IC50 ([7]; primary AML specimen 07H003): 94.5 nM
IC50 ([7]; primary AML specimen 07H131): 512 nM
IC50 ([7]; primary AML specimen 07H144): 165 nM
IC50 ([7]; primary AML specimen 07H155): 231 nM
IC50 ([7]; primary AML specimen 08H018): 618 nM
IC50 ([7]; primary AML specimen 08H021): 90.9 nM
IC50 ([7]; primary AML specimen 08H056): 79.4 nM
IC50 ([7]; primary AML specimen 08H063): 146 nM
IC50 ([7]; primary AML specimen 08H085): 309 nM
IC50 ([7]; primary AML specimen 08H108): 70.8 nM
IC50 ([7]; primary AML specimen 08H118): 291 nM
IC50 ([7]; primary AML specimen 09H016): 244 nM
IC50 ([7]; primary AML specimen 09H070): 123 nM
IC50 ([7]; primary AML specimen 10H014): 563 nM
IC50 ([7]; primary AML specimen 10H046): 306 nM
IC50 ([7]; primary AML specimen 10H107): 324 nM
IC50 ([7]; primary AML specimen 10H127): 71.5 nM
IC50 ([7]; primary AML specimen 10H161): 97.5 nM
IC50 ([7]; primary AML specimen 10H174): 211 nM
IC50 ([7]; primary AML specimen 11H008): 161 nM
IC50 ([7]; primary AML specimen 11H019): 214 nM
IC50 ([7]; primary AML specimen 11H170): 523 nM
IC50 ([7]; primary AML specimen 11H217): 74 nM
IC50 ([7]; primary AML specimen 11H232): 299 nM
IC50 ([7]; primary AML specimen 12H033): 280 nM
IC50 ([7]; primary AML specimen 12H055): 183 nM
IC50 ([7]; primary AML specimen 12H148): 208 nM
IC50 ([7]; primary AML specimen 13H053): 563 nM
IC50 ([7]; primary AML specimen 15H045): 256 nM
IC50 ([7]; primary AML specimen 17H065): 2500 nM
